10 compounds from ChEMBL document CHEMBL1777782, “Indole 5-carboxamide Thumb Pocket I inhibitors of HCV NS5B polymerase with nanomolar potency in cell-based subgenomic replicons (part 2): central amino acid linker and right-hand-side SAR studies” (Bioorg Med Chem Lett, 2011) can be followed below.

A short description of series [1]: Inhibition of HCV 1b NS5B RNA dependent RNA polymerase by scintillation proximity assay. Also on record: species or system Hepacivirus hominis.
In a further series the test system is Hepatitis C virus. Kind of series: Antiviral activity against Hepatitis C virus genotype 1b infected in human Huh-7 cells assessed as inhibition of viral replication after 72 hrs. The following applies: Huh-7, 72 h. The format is functional, organism-based, Hepacivirus hominis.
Series [2] can be described thus: Half life in human liver microsomes at 10 uM.
A short description of series [3]: Permeability across apical to basolateral side in human Caco2 cells. The following applies: Caco-2.
Series [4] is described as follows: Half life in rat liver microsomes at 10 uM. It is filed as ADME, Microsome.
A short description of series [5]: Cmax in overnight-fasted Sprague-Dawley rat at 10, mg/kg, po administered by oral gavage. It is filed as ADME, organism-based. The following applies: in vivo.
Series [6] in a line: Selectivity ratio for polio virus RNA-dependent RNA polymerase to HCV 1b NS5B RNA dependent RNA polymerase.
Series [7] can be described thus: Selectivity ratio for mammalian DNA-dependent RNA polymerase II to HCV 1b NS5B RNA dependent RNA polymerase.
A short description of another series: physchem. The following applies: phosphate buffer, pH 7.2.
Series [8] can be described thus: Tmax in overnight-fasted Sprague-Dawley rat at 10, mg/kg, po administered by oral gavage. The format is ADME, organism-based. The following applies: in vivo.
The nature of series [9]: AUC in overnight-fasted Sprague-Dawley rat at 10, mg/kg, po administered by oral gavage. It is filed as ADME, organism-based. The following applies: plasma.
Series [10] can be described thus: Mean retention time in overnight-fasted Sprague-Dawley rat at 10, mg/kg, po administered by oral gavage. The format is ADME, organism-based. The following applies: in vivo.

Each structure is given as a SMILES string. Converted amounts (≈) assume the structure as drawn.

Compound `Cn1c(-c2ccccn2)c(C2CCCCC2)c2ccc(C(=O)N[C@@]3(C(=O)Nc4ccc(/C=C/C(=O)O)cc4)CCCNC3)cc21` returned an IC50 in [1] of 11 nM. The EC50 in the series on Hepatitis C virus came out at 20 nM. In addition, the figures for the half-life at 10 µM in series [2] (liver microsomes) and in series [4] were 84 min and 17 min, respectively. This compound also yielded a Papp A→B in series [3] of 0.6 ×10⁻⁶ cm/s. In series [5], the Cmax was less than 100 nM. Also, the Ratio in series [6] and in series [7] was greater than 150 throughout. The solubility (thermodynamic) at 24 h in “physchem” turned out to be 22 µg/mL (≈ 36.3 µM).
As to `Cn1c(-c2ccccn2)c(C2CCCCC2)c2ccc(C(=O)NC(C)(C)C(=O)Nc3ccc(/C=C/C(=O)O)cc3)cc21`, the Tmax in series [8] is 15 min.
`CN1CCC(NC(=O)c2ccc3c(C4CCCCC4)c(-c4ccccn4)n(C)c3c2)(C(=O)Nc2ccc(/C=C/C(=O)O)cc2)CC1` returned a 50% inhibitory concentration (IC50) in series [1] of 10 nM. Also, in the series on Hepatitis C virus, the 50% effective concentration (EC50) turned out to be 60 nM. Besides, the half-life at 10 µM came to 148 min in series [2] (liver microsomes) and 34 min in [4]. Also, the apparent permeability from apical to basolateral (Papp A→B) in [3] was found to be 0.6 ×10⁻⁶ cm/s. In addition, the Cmax in series [5] is less than 100 nM. Besides, the Ratio in series [6] and in series [7] was greater than 150 throughout. This compound showed a solubility (thermodynamic) at 24 h in the series “physchem” of 22 µg/mL (≈ 35.5 µM).
In series [1], `Cn1c(-c2ccccn2)c(C2CCCCC2)c2ccc(C(=O)NC(C)(C)C(=O)Nc3ccc(CCC(=O)O)cc3)cc21` had an IC50 of 132 nM. The concentration giving a half-maximal response (EC50) with Hepatitis C virus stood at 267 nM. The compound also displayed a half-life at 10 µM in [2] (liver microsomes) of 63 min. Besides, the Papp A→B in [3] was 12.7 ×10⁻⁶ cm/s. In addition, the Cmax in [5] was found to be 630 nM. Further, the Tmax in series [8] was found to be 30 min. In series [9], this compound registered an AUC of 0.81 µM·h. Besides, the Ratio in series [6] and in series [7] was greater than 150 in each case. This compound also displayed an MRT in series [10] of 102 min. The thermodynamic solubility at 24 h in “physchem” was found to be 244 µg/mL (≈ 431 µM).
For `Cn1c(-c2ccccn2)c(C2CCCCC2)c2ccc(C(=O)NC3(C(=O)Nc4ccc(/C=C/C(=O)O)cc4)CCC3)cc21`, in series [1], the IC50 was 52 nM. The EC50 with Hepatitis C virus is 43 nM. Moreover, the half-life at 10 µM in series [2] (microsomes) is 50 min; in series [4], 17 min. This compound had a Papp A→B in [3] of 39 ×10⁻⁶ cm/s. The compound also displayed a Cmax in series [5] of 290 nM. The time to peak (Tmax) in [8] amounted to 30 min. In series [9], this compound displayed an AUC of 0.35 µM·h. For the same compound, the Ratio in [6] and in series [7] was greater than 150 in each case. In the series “physchem”, this compound returned a thermodynamic solubility at 24 h of 6 µg/mL (≈ 10.4 µM).
For the compound `Cn1c(-c2ccccn2)c(C2CCCCC2)c2ccc(C(=O)NC3(C(=O)Nc4ccc(C(=O)O)cc4)CCC3)cc21`, the IC50 in [1] stood at 93 nM. Also, in the series with Hepatitis C virus, the EC50 is 110 nM. In addition, the half-life at 10 µM in series [2] (microsomes) was 21 min; in series [4], 9 min. The compound further registered a Papp A→B in series [3] of 9.7 ×10⁻⁶ cm/s. The same compound showed a Cmax in series [5] of 500 nM. Also, the Ratio in series [6] and in series [7] was greater than 150 throughout. Moreover, the solubility (thermodynamic) at 24 h in “physchem” is 336 µg/mL (≈ 610 µM).
Regarding `CN1CC[C@@](NC(=O)c2ccc3c(C4CCCCC4)c(-c4ccccn4)n(C)c3c2)(C(=O)Nc2ccc(/C=C/C(=O)O)cc2)C1`, in series [1], the IC50 worked out at 21 nM. Also, the EC50 in the series on Hepatitis C virus amounted to 34 nM. Also, the half-life at 10 µM in series [2] (microsomes) came out at 456 min; in [4], 18 min. This compound registered a Papp A→B in series [3] of 8.1 ×10⁻⁶ cm/s. This compound registered a Cmax in [5] of 320 nM. Further, in series [8], the Tmax is 30 min. In series [9], this compound had an AUC of 0.81 µM·h. Also, the Ratio in [6] and in series [7] was greater than 150 in each case. This compound also came in with an MRT in [10] of 228 min. Besides, the thermodynamic solubility at 24 h in the series “physchem” is 15 µg/mL (≈ 24.8 µM).
Consider `Cn1c(-c2ccccn2)c(C2CCCCC2)c2ccc(C(=O)N[C@@]3(C(=O)Nc4ccc(/C=C/C(=O)O)cc4)CCNC3)cc21`, for which 23 nM corresponded to half-maximal inhibition in series [1] (IC50). The EC50 with Hepatitis C virus was found to be 83 nM. Besides, the half-life at 10 µM in series [2] (liver microsomes) is greater than 300 min. In series [3], this compound came in with a Papp A→B of 0.5 ×10⁻⁶ cm/s. The Ratio in series [6] and in series [7] was greater than 150 throughout. In addition, in the series “physchem”, the solubility (thermodynamic) at 24 h is 10 µg/mL (≈ 16.9 µM).
Turning to `Cn1c(-c2ccccn2)c(C2CCCCC2)c2ccc(C(=O)NC3(C(=O)Nc4ccc(/C=C/C(=O)O)cc4)CCOCC3)cc21`, in [1], half-maximal inhibition (IC50) required 68 nM. Besides, the EC50 in the series with Hepatitis C virus worked out at 170 nM. Besides, the half-life at 10 µM in series [2] (liver microsomes) turned out to be 41 min. This compound also showed an apical-to-basolateral permeability (Papp A→B) in series [3] of 5.7 ×10⁻⁶ cm/s. Besides, the Ratio in [6] and in [7] was greater than 150 each time. Also, the thermodynamic solubility at 24 h in the series “physchem” was determined as 15 µg/mL (≈ 24.7 µM).
Turning to `Cc1c(C(=O)O)sc2ccc(NC(=O)C(C)(C)NC(=O)c3ccc4c(C5CCCCC5)c(-c5ccccn5)n(C)c4c3)cc12`, in series [1], the IC50 was found to be 35 nM. In addition, the EC50 in the series on Hepatitis C virus came to 46 nM. Further, in series [2] (liver microsomes), the half-life at 10 µM amounted to 34 min. Moreover, in series [3], the Papp A→B amounted to 0.8 ×10⁻⁶ cm/s. Further, the Ratio in series [6] and in [7] was greater than 150 in each case. The thermodynamic solubility at 24 h in the series “physchem” came to 202 µg/mL (≈ 332 µM).
